According to patent US10570179B2, “Substituted urea depsipeptide analogs as activators of the CLPP endopeptidase” (priority 2016, dated 2020):
Values after ≈ are worked out from the molar mass of the structure shown. Read-outs that look alike come from different tables or passages of the source. Numbered stars: 1 amine (or outer) side, 2 acyl side, 3 side chain; on linkers, the order of the positions; unused ones are H or OH. Bridge positions count the residues as written; N and C are the ends. Square brackets hold non-standard residues; d marks the D form. Peptide text beside a SMILES is read from it. * marks the point of attachment. Piperazine(2S-CO,4-Me) = CN1CCN[C@H](C(=O)O)C1; Phe(3,5-F2) = N[C@@H](Cc1cc(F)cc(F)c1)C(=O)O; NH(1-Me-indolin-5-yl) = CN1CCc2cc(N*)ccc21; Morpholine(3S-CO) = O=C(O)[C@@H]1COCCN1; Phe(3-Me) = Cc1cccc(C[C@H](N)C(=O)O)c1; NH(4-Cl-2-F-phenyl) = Fc1cc(Cl)ccc1N*; Pro(4R-Me) = C[C@H]1CN[C@H](C(=O)O)C1; aThr = C[C@H](O)[C@H](N)C(=O)O; Pip = O=C(O)[C@@H]1CCCCN1; CO = O=C([*:1])[*:2]; X2 = Fc1cc(N*)ccc1Cl

Tests used:
S. aureus ΔClpP = experiment: Minimal inhibitory concentration, microbroth dilution; assay type: cell-based, Staphylococcus aureus; settings: MIC; ClpP inactivated
Procedure, shortened: (§1)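 Following CLSI M7-A7 microbroth dilution, twofold serial dilutions of compound (top final concentration 200 μM) were combined with an equal volume of broth inoculum at about 10^5 cfu/mL. Plates were incubated aerobically at 37 °C overnight, and the MIC was the lowest concentration preventing visible growth.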

MRSA NRS70 = experiment: as above; assay type: cell-based; settings: Staphylococcus aureus
Procedure, shortened: as §1

S. aureus ATCC 29213 = experiment: as above; assay type: cell-based; settings: Staphylococcus aureus
Procedure, shortened: as §1

E. faecails = experiment: as above; assay type: cell-based; settings: Enterococcus faecalis
Procedure, shortened: as §1

S. aureus USA 300 = experiment: as above; assay type: cell-based; settings: Staphylococcus aureus
Procedure, shortened: as §1

Plasma stability assay [1] = assay type: in vitro ADME, mouse
Protocol: (§2) The plasma stability property of early drug discovery compounds can influence the in vivo efficacy of the test compounds/drugs. Human and/or mouse plasma degradation is determined using multiple time points to monitor the rate of disappearance of the parent compound during incubation.
(§3) Sample preparation for plasma stability was modified from Di et al. (2005) Int. J. Pharm. 297(1-2): 110-119. A set of incubation times of 0, 3, 24, and 48 hour were used. DMSO stock solutions of test compounds were prepared at 10 mM concentration. 1.8 μL of each test compound was each added directly to 1.8 mL of human/mouse plasma to get the final concentration of 10 μM. This compound/matrix was mixed and 70 μL was transferred to 8 time points plates (each in triplicate wells). For the Time 0 plate, 210 μL of cold acetonitrile with internal standard (4 μg/mL warfarin) was added to each well and no incubation needed. For other seven time points' plate, the plate was incubated at 37° C. for required time, followed by quenching of the reaction by adding 210 μL of cold acetonitrile with internal standard (4 μg/ml warfarin) to each well. All of the plates were sealed and mixed well at 600 rpm for 10 min and were centrifuged at 4000 rpm for 20 min. The supernatants (120 μL) were transferred to analytical plates for analysis by LCMS. Conditions for Waters ACQUITY-UPLC-MS-UV system was described separately. The plasma stability was evaluated via the half-life from least-squares fit of the multiple time points based on first-order kinetics.

Plasma stability assay [2] = assay type: in vitro ADME, human
Protocol: as §2, §3

[3] = read-out: Minimal Inhibitory Concentrations (μM) MRSA NRS70, MIC
[4] = ATCC29213, read-out: Minimal Inhibitory Concentrations (μM) S. aureus ATCC 29213, MIC
[5] = read-out: Minimal Inhibitory Concentrations (μM) E. faecails, MIC
[6] = USA300, read-out: Minimal Inhibitory Concentrations (μM) S. aureus USA 300, MIC
[7] = plasma stability half-life, mouse plasma, 37° C.
[8] = plasma stability half-life, human plasma, 37° C.
[9] = MIC, read-out: Minimal Inhibitory Concentrations (μM) MRSA NRS70
[10] = ATCC29213, MIC, read-out: Minimal Inhibitory Concentrations (μM) S. aureus ATCC 29213
[11] = MIC, read-out: Minimal Inhibitory Concentrations (μM) E. faecails
[12] = USA300, MIC, read-out: Minimal Inhibitory Concentrations (μM) S. aureus USA 300

In the case of `Cc1ccc(NC(=O)N[C@@H](Cc2cccc(C)c2)C(=O)N[C@H]2COC(=O)[C@@H]3C[C@H](C)CN3C(=O)[C@H](C)NC(=O)[C@@H]3CCCCN3C(=O)[C@@H]3CCCN3C2=O)cc1` (stereo in doubt) [Compound 43, (S)—N-((2S,6S,8AS,14AS,20S,23AS)-2,6-DIMETHYL-5,8,14,19,23-PENTAOXOOCTADECAHYDRO-1H,5H,14H,19H-PYRIDO[2,1-I]DIPYRROLO[2,1-C:2′,1′-L][1]OXA[4,7,10,13]TETRAAZACYCLOHEXADECIN-20-YL)-3-(M-TOLYL)-2-(3-(P-TOLYL)UREIDO)PROPANAMIDE], the “Minimal Inhibitory Concentrations (μM) S. aureus ΔClpP” value (S. aureus ΔClpP) was over 20 µM, the MIC (MRSA NRS70; [3]) was 2.5 µM (≈ 1.93 µg/mL) and the MIC (S. aureus ATCC 29213; [4]) was 2.5 µM (≈ 1.93 µg/mL). For the same molecule, the MIC (E. faecails; [5]) was 2.5 µM (≈ 1.93 µg/mL), the MIC (S. aureus USA 300; [6]) was 2.5 µM (≈ 1.93 µg/mL) and the “Mouse” value (Plasma stability assay [1]; [7]) was 21.9 h. For the same molecule, the “Human” value (Plasma stability assay [2]; [8]) was over 50 h.
For `C[C@@H]1C[C@H]2C(=O)O[C@@H](C)[C@H](NC(=O)[C@H](Cc3cc(F)cc(F)c3)NC(=O)Nc3ccc4c(c3)CCN4C)C(=O)N3CCC[C@H]3C(=O)N3CCOC[C@H]3C(=O)N[C@@H](C)C(=O)N2C1` [Compound 32] ({NH(1-Me-indolin-5-yl)-CO}-[Phe(3,5-F2)][aThr]P[Morpholine(3S-CO)]A[Pro(4R-Me)]; ester 2-C), the “Minimal Inhibitory Concentrations (μM) S. aureus ΔClpP” value (S. aureus ΔClpP) was over 20 µM, the MIC (MRSA NRS70; [3]) was 0.078 µM (≈ 0.0664 µg/mL) and the MIC (S. aureus ATCC 29213; [4]) was 0.156 µM (≈ 0.133 µg/mL). For the same molecule, the MIC (E. faecails; [5]) was 0.039 µM (≈ 0.0332 µg/mL), the MIC (S. aureus USA 300; [6]) was 0.156 µM (≈ 0.133 µg/mL) and the “Mouse (hr)” value (Plasma stability assay [1]; [7]) was >>48 hr. For the same molecule, the “Human (hr)” value (Plasma stability assay [2]; [8]) was >>48 hr.
With `C[C@@H]1C[C@H]2C(=O)OC[C@H](NC(=O)[C@H](Cc3cc(F)cc(F)c3)NC(=O)Nc3ccc(Cl)cc3F)C(=O)N3CCC[C@H]3C(=O)N3CCN(C)C[C@H]3C(=O)N[C@@H](C)C(=O)N2C1` [Compound 34] ({NH(4-Cl-2-F-phenyl)-CO}-[Phe(3,5-F2)]SP[Piperazine(2S-CO,4-Me)]A[Pro(4R-Me)]; ester 2-C) the “Minimal Inhibitory Concentrations (μM) S. aureus ΔClpP” value (S. aureus ΔClpP) was over 20 µM, the MIC (MRSA NRS70; [9]) was 0.078 µM (≈ 0.0661 µg/mL) and the MIC (S. aureus ATCC 29213; [10]) was 0.078 µM (≈ 0.0661 µg/mL). For the same molecule, the MIC (E. faecails; [11]) was under 0.02 µM, the MIC (S. aureus USA 300; [12]) was 0.156 µM (≈ 0.132 µg/mL) and the “Mouse” value (Plasma stability assay [1]; mouse, 10 μM) was 21.18 h. For the same molecule, the “Human” value (Plasma stability assay [2]; human, 10 μM) was 26.56 h.
In the case of `Cc1cccc(C[C@H](NC(=O)Nc2ccc(Cl)c(F)c2)C(=O)N[C@@H]2C(=O)N3CCC[C@H]3C(=O)N3CCCC[C@H]3C(=O)N[C@@H](C)C(=O)N3C[C@H](C)C[C@H]3C(=O)O[C@H]2C)c1` [Compound 35, (S)-2-(3-(4-CHLORO-3-FLUOROPHENYL)UREIDO)-3-(M-TOLYL)-N-((2R,6S,8AS,14AS,20S,21S,23AS)-2,6,21-TRIMETHYL-5,8,14,19,23-PENTAOXOOCTADECAHYDRO-1H,5H,14H,19H-PYRIDO[2,1-I]DIPYRROLO[2,1-C:2′,1′-L][1]OXA[4,7,10,13]TETRAAZACYCLOHEXADECIN-20-YL)PROPANAMIDE] ({X2-CO}-[Phe(3-Me)][aThr]P[Pip]A[Pro(4R-Me)]; ester 2-C), the “Minimal Inhibitory Concentrations (μM) S. aureus ΔClpP” value (S. aureus ΔClpP) was over 20 µM, the MIC (MRSA NRS70; [9]) was 0.313 µM (≈ 0.258 µg/mL) and the MIC (S. aureus ATCC 29213; [10]) was 0.625 µM (≈ 0.515 µg/mL). For the same molecule, the MIC (E. faecails; [11]) was 1.25 µM (≈ 1.03 µg/mL), the MIC (S. aureus USA 300; [12]) was 0.625 µM (≈ 0.515 µg/mL) and the “Mouse” value (Plasma stability assay [1]; mouse, 10 μM) was over 50 h. For the same molecule, the “Human” value (Plasma stability assay [2]; human, 10 μM) was over 50 h.
